Format in all cases: functional
What all share (conditions): read-out: DIZ

Assay [1] relates to Staphylococcus aureus. In words: Antibacterial activity against Staphylococcus aureus at 0.13 mol/L after 12 to 24 hrs by paper disc method.
In assay [2] the test system is Aspergillus niger. The experiment in a line: Antifungal activity against Aspergillus niger at 0.13 mol/L after 2 to 4 days by paper disc method.
Assay [3] concerns Escherichia coli. In words: Antibacterial activity against Escherichia coli at 0.03 mol/L after 12 to 24 hrs by paper disc method.
Assay [4] has as its system Penicillium citrinum. The experiment in a line: Antifungal activity against Penicillium citrinum at 0.06 mol/L after 2 to 4 days by paper disc method.
Assay [5] concerns Staphylococcus aureus. In words: Antibacterial activity against Staphylococcus aureus at 0.03 mol/L after 12 to 24 hrs by paper disc method.
Assay [6] concerns Aspergillus niger. In words: Antifungal activity against Aspergillus niger at 0.03 mol/L after 2 to 4 days by paper disc method.
Assay [7] has as its system Staphylococcus aureus. The experiment in a line: Antibacterial activity against Staphylococcus aureus at 0.25 mol/L after 12 to 24 hrs by paper disc method.
Assay [8] deals with Staphylococcus aureus. In words: Antibacterial activity against Staphylococcus aureus at 0.06 mol/L after 12 to 24 hrs by paper disc method.
The subject of assay [9] is Penicillium citrinum. In words: Antifungal activity against Penicillium citrinum at 0.03 mol/L after 2 to 4 days by paper disc method.
Assay [10] has as its system Aspergillus niger. In words: Antifungal activity against Aspergillus niger at 0.06 mol/L after 2 to 4 days by paper disc method.
Assay [11] concerns Penicillium citrinum. The experiment in a line: Antifungal activity against Penicillium citrinum at 0.25 mol/L after 2 to 4 days by paper disc method.
The subject of assay [12] is Escherichia coli. In words: Antibacterial activity against Escherichia coli at 0.25 mol/L after 12 to 24 hrs by paper disc method.
The test system of assay [13] is Aspergillus niger. In words: Antifungal activity against Aspergillus niger at 0.25 mol/L after 2 to 4 days by paper disc method.
Assay [14] has as its system Penicillium citrinum. The experiment in a line: Antifungal activity against Penicillium citrinum at 0.13 mol/L after 2 to 4 days by paper disc method.
The subject of assay [15] is Escherichia coli. In words: Antibacterial activity against Escherichia coli at 0.06 mol/L after 12 to 24 hrs by paper disc method.
Assay [16] concerns Escherichia coli. The experiment in a line: Antibacterial activity against Escherichia coli at 0.13 mol/L after 12 to 24 hrs by paper disc method.

Structures are written as SMILES.

In the case of `CC(/N=C/C=C/c1ccccc1)C(=O)O` (stereo not drawn), the zone of inhibition at 130000 µM with Staphylococcus aureus [1] is 8 mm; with Aspergillus niger [2] it was 8.3 mm; in the assay on Penicillium citrinum [14] it was 10.3 mm; in the assay with Escherichia coli [16], 8 mm. In addition, the zone of inhibition at 30000 µM with Escherichia coli [3] worked out at 8 mm; with Staphylococcus aureus [5] it was 8 mm; in the assay with Aspergillus niger [6], 8 mm; in the assay with Penicillium citrinum [9], 12.3 mm. In addition, the zone of inhibition at 60000 µM with Penicillium citrinum [4] came to 9.3 mm; in the assay with Staphylococcus aureus [8], 8 mm; in the assay on Aspergillus niger [10], 8 mm; in the assay on Escherichia coli [15], 8 mm. In addition, the zone of inhibition at 250000 µM with Staphylococcus aureus [7] was determined as 8 mm; in the assay on Penicillium citrinum [11], 8 mm; with Escherichia coli [12], 11 mm; with Aspergillus niger [13], 9.7 mm.
On to `COc1ccc(/C=C/C=N/CC(=O)O)cc1`, for which the zone of inhibition at 130000 µM with Staphylococcus aureus [1] turned out to be 8 mm; in the assay with Aspergillus niger [2] it was 17.7 mm; with Penicillium citrinum [14], 11.7 mm; with Escherichia coli [16], 8 mm. Moreover, the zone of inhibition at 30000 µM in the assay on Escherichia coli [3] was 8 mm; in the assay with Staphylococcus aureus [5], 8 mm; with Aspergillus niger [6], 11.3 mm; in the assay on Penicillium citrinum [9] it was 11.5 mm. Also, the zone of inhibition at 60000 µM was 8.7 mm in the assay on Penicillium citrinum [4], 9 mm in the assay with Staphylococcus aureus [8], 8 mm with Aspergillus niger [10] and 8 mm with Escherichia coli [15]. For the same compound, the zone of inhibition at 250000 µM in the assay on Staphylococcus aureus [7] was found to be 8.7 mm; in the assay with Penicillium citrinum [11] it was 21 mm; in the assay with Escherichia coli [12], 13.5 mm; in the assay on Aspergillus niger [13], 23.3 mm.
For `O=C(O)C[C@H](/N=C/C=C/c1ccc(Cl)cc1)C(=O)O`, the zone of inhibition at 130000 µM was found to be 18.3 mm in the assay with Staphylococcus aureus [1], 15.7 mm in the assay on Aspergillus niger [2], 23.3 mm in the assay with Penicillium citrinum [14] and 12 mm in the assay with Escherichia coli [16]. Also, the zone of inhibition at 30000 µM amounted to 8 mm with Escherichia coli [3], 9.2 mm in the assay on Staphylococcus aureus [5], 14.3 mm in the assay on Aspergillus niger [6] and 24.5 mm in the assay on Penicillium citrinum [9]. Moreover, the zone of inhibition at 60000 µM with Penicillium citrinum [4] stood at 25 mm; with Staphylococcus aureus [8], 8.5 mm; in the assay with Aspergillus niger [10], 19.3 mm; with Escherichia coli [15], 13 mm. Moreover, the zone of inhibition at 250000 µM in the assay on Staphylococcus aureus [7] came out at 30.3 mm; in the assay with Penicillium citrinum [11] it was 32.3 mm; with Escherichia coli [12], 25.2 mm; in the assay with Aspergillus niger [13], 29 mm.
In the case of `O=C(O)C/N=C/C=C/c1ccccc1`, the zone of inhibition at 130000 µM stood at 8 mm with Staphylococcus aureus [1], 8.7 mm in the assay on Aspergillus niger [2], 10.7 mm in the assay with Penicillium citrinum [14] and 8 mm in the assay with Escherichia coli [16]. Further, the zone of inhibition at 30000 µM in the assay with Escherichia coli [3], with Staphylococcus aureus [5], in the assay on Aspergillus niger [6] and with Penicillium citrinum [9] was 8 mm each time. The zone of inhibition at 60000 µM was 11 mm with Penicillium citrinum [4], 8 mm in the assay on Staphylococcus aureus [8], 9 mm in the assay with Aspergillus niger [10] and 8 mm in the assay on Escherichia coli [15]. The zone of inhibition at 250000 µM in the assay on Staphylococcus aureus [7] was 11.7 mm; in the assay with Penicillium citrinum [11], 10.3 mm; with Escherichia coli [12], 9.3 mm; in the assay on Aspergillus niger [13], 11 mm.
Turning to `O=C(O)CC[C@H](/N=C/C=C/c1ccc(Cl)cc1)C(=O)O`, the zone of inhibition at 130000 µM in the assay with Staphylococcus aureus [1] stood at 20 mm; in the assay on Aspergillus niger [2] it was 23.3 mm; with Penicillium citrinum [14] it was 23 mm; in the assay on Escherichia coli [16] it was 17.3 mm. The zone of inhibition at 30000 µM was 15.7 mm in the assay with Escherichia coli [3], 8.3 mm in the assay with Staphylococcus aureus [5], 17.7 mm with Aspergillus niger [6] and 17 mm with Penicillium citrinum [9]. Moreover, the zone of inhibition at 60000 µM with Penicillium citrinum [4] was 18.7 mm; in the assay with Staphylococcus aureus [8], 10.5 mm; in the assay on Aspergillus niger [10], 17.3 mm; in the assay on Escherichia coli [15], 12 mm. In addition, the zone of inhibition at 250000 µM is 31 mm in the assay with Staphylococcus aureus [7], 35 mm in the assay on Penicillium citrinum [11], 18.3 mm in the assay on Escherichia coli [12] and 21 mm with Aspergillus niger [13].
Regarding `COc1ccc(/C=C/C=N/[C@@H](CC(=O)O)C(=O)O)cc1`, the zone of inhibition at 130000 µM was found to be 10.2 mm with Staphylococcus aureus [1], 22.5 mm in the assay on Aspergillus niger [2], 23.7 mm in the assay with Penicillium citrinum [14] and 10 mm in the assay with Escherichia coli [16]. Further, the zone of inhibition at 30000 µM amounted to 10.3 mm in the assay on Escherichia coli [3], 8 mm with Staphylococcus aureus [5], 8 mm in the assay with Aspergillus niger [6] and 8 mm with Penicillium citrinum [9]. In addition, the zone of inhibition at 60000 µM turned out to be 12.8 mm with Penicillium citrinum [4], 8.3 mm in the assay with Staphylococcus aureus [8], 11.2 mm with Aspergillus niger [10] and 10 mm with Escherichia coli [15]. The zone of inhibition at 250000 µM in the assay on Staphylococcus aureus [7] amounted to 8 mm; with Penicillium citrinum [11], 34.3 mm; in the assay on Escherichia coli [12], 9.5 mm; in the assay on Aspergillus niger [13], 16.3 mm.
As to `O=C(O)C[C@H](/N=C/C=C/c1ccccc1)C(=O)O`, the zone of inhibition at 130000 µM worked out at 8 mm in the assay on Staphylococcus aureus [1], 24 mm in the assay on Aspergillus niger [2], 28 mm with Penicillium citrinum [14] and 17.3 mm in the assay on Escherichia coli [16]. For the same compound, the zone of inhibition at 30000 µM with Escherichia coli [3] was 8 mm; with Staphylococcus aureus [5], 8 mm; with Aspergillus niger [6] it was 12.7 mm; in the assay with Penicillium citrinum [9], 10.3 mm. For the same compound, the zone of inhibition at 60000 µM in the assay with Penicillium citrinum [4] turned out to be 14.8 mm; in the assay with Staphylococcus aureus [8], 8 mm; with Aspergillus niger [10] it was 19.3 mm; in the assay with Escherichia coli [15], 12 mm. Further, the zone of inhibition at 250000 µM in the assay on Staphylococcus aureus [7] was 18 mm; in the assay on Penicillium citrinum [11], 40.7 mm; in the assay with Escherichia coli [12] it was 25 mm; in the assay on Aspergillus niger [13] it was 29.7 mm.
For the compound `O=C(O)C/N=C/C=C/c1ccc(Cl)cc1`, the zone of inhibition at 130000 µM in the assay on Staphylococcus aureus [1] amounted to 9.7 mm; in the assay with Aspergillus niger [2], 23 mm; in the assay with Penicillium citrinum [14] it was 21.7 mm; with Escherichia coli [16], 18.2 mm. For the same compound, the zone of inhibition at 30000 µM with Escherichia coli [3] came to 19.3 mm; with Staphylococcus aureus [5], 12.3 mm; in the assay with Aspergillus niger [6], 12 mm; with Penicillium citrinum [9], 16.3 mm. The zone of inhibition at 60000 µM was 20.3 mm with Penicillium citrinum [4], 8 mm in the assay with Staphylococcus aureus [8], 21.7 mm in the assay with Aspergillus niger [10] and 21.7 mm in the assay with Escherichia coli [15]. In addition, the zone of inhibition at 250000 µM in the assay with Staphylococcus aureus [7] was determined as 22.2 mm; in the assay on Penicillium citrinum [11], 25 mm; with Escherichia coli [12] it was 22.8 mm; in the assay with Aspergillus niger [13], 23.7 mm.

These data come from ChEMBL document CHEMBL3751674, “Synthesis, antimicrobial activity of Schiff base compounds of cinnamaldehyde and amino acids” (2016).
